# Measured values taken from ChEMBL document CHEMBL1201862, “PubChem BioAssay data set” (2004).
# The source made the active and inactive calls. Rule as the data show it, for most assays here: actives have a measured IC50 and inactives only a lower limit.
# What was measured:
# Protein Rev = Protein Rev (Human immunodeficiency virus type 1 group M subtype B (isolate HXB2)(HIV-1), UniProt P04618); assay: inhibitors of Rev binding to RRE RNA, dose response, biochemical, fluorescence polarization, HIV-1 (AID 434976); parameters: species or system Human immunodeficiency virus 1
# [1] = target: Female germline-specific tumor suppressor gld-1 (Caenorhabditis elegans, UniProt Q17339); assay: inhibitors of GLD-1 binding to TGE RNA, dose response, biochemical, fluorescence polarization, C. elegans (AID 2802);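 also: fluorescence polarization of labeled TGE RNA bound by purified gld-1 protein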
# [2] = target: T1, Tyrosine-protein phosphatase non-receptor type 7 (Homo sapiens, UniProt P35236); assay: redox-dependent HePTP inhibition, mechanism study, biochemical, fluorescence (AID 2068); format: functional
# T1 sequence (P35236 whole entry): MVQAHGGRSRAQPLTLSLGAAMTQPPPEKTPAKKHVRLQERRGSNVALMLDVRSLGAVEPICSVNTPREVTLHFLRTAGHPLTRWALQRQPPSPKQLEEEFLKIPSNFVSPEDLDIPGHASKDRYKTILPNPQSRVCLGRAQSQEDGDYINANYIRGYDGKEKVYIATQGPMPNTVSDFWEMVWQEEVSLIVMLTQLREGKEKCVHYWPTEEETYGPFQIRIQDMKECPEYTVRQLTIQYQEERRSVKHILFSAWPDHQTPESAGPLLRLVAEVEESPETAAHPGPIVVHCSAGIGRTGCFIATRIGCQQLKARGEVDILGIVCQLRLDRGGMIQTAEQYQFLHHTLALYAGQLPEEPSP
# [3] = target: T2, Dual specificity protein phosphatase 3 (Homo sapiens, UniProt P51452); assay: SAR VHR1 absorbance Assay for In Vitro dose response studies. [Related pubchem assays (depositor defined):AID1654, AID1661, AID1878, AID1992, AID2004]
# [4] = target: T2, Dual specificity protein phosphatase 3; assay: SAR VHR1 Fluorescent Assay for In Vitro dose response studies. [Related pubchem assays (depositor defined):AID1654, AID1661, AID1878, AID1992, AID2004, AID2070, AID2085]; format: functional
# [5] = target: T3, Dual specificity protein phosphatase 6 (Rattus norvegicus, UniProt Q64346); format: functional;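 also: confirmatory in vitro dose-response testing of MKP-3 inhibition; recombinant His-tagged MKP-3 made in E. coli BL21 with OMFP substrate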
# T3 sequence (Q64346 whole entry): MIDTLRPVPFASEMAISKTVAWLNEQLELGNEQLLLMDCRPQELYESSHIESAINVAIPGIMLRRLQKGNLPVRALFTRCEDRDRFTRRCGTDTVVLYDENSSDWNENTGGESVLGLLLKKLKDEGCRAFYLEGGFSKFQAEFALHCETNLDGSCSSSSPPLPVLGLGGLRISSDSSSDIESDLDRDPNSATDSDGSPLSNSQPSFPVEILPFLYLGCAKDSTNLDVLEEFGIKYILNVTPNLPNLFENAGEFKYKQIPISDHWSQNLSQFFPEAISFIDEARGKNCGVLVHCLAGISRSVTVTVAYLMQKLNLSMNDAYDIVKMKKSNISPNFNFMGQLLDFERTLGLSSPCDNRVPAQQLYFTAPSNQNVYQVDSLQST
# Mu-type opioid receptor = Mu-type opioid receptor (Homo sapiens, UniProt P35372); assay: SAR Analysis of Antagonists of the MOR Receptor using an Image-Based Assay - Set 3. [Related pubchem assays (depositor defined):AID1777, AID1785, AID1786, AID1966, AID2133, AID2136, AID2284, AID2285, AID2420]; format: functional
# [6] = target: T4, Kappa-type opioid receptor (Homo sapiens, UniProt P41145); assay: SAR analysis of Antagonists of the Kappa Opioid Receptor (KOR) using an Image-Based Assay - Set 3. [Related pubchem assays (depositor defined):AID1777, AID1785]; format: functional
# [7] = target: Delta-type opioid receptor (Homo sapiens, UniProt P41143); assay: SAR Analysis of Antagonists of the DOR Receptor using an Image-Based Assay - Set 3. [Related pubchem assays (depositor defined):AID1777, AID1785]; format: functional;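 also: U2OS cells expressing DOR1 and beta-arrestin GFP stimulated with 100 nM SNC80; imaging of GFP-tagged beta-arrestin moving into spots after receptor activation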
# [8] = target: T4, Kappa-type opioid receptor; assay: SAR analysis of small molecule antagonists of the kappa opioid receptor via a luminescent beta-arrestin assay - Set 3. [Related pubchem assays (depositor defined):AID1777, AID1778, AID1785, AID1786, AID1966, AID2133, AID2136, AID2285, AID2495]; format: functional
# [9] = target: Sphingosine 1-phosphate receptor 4 (Homo sapiens, UniProt O95977); assay: S1P4 receptor agonists, human, late-stage follow-up, cell-based, fluorescence, synthesized compounds (AID 463107); format: functional
# [10] = target: T5, Tyrosine-protein phosphatase non-receptor type 22 (Homo sapiens, UniProt Q9Y2R2); assay: LYP (PTPN22) phosphatase inhibitor potency, SAR follow-up, biochemical, pCAP fluorogenic substrate, fluorescence, set 3 (AID 449727); format: functional
# T5 sequence (Q9Y2R2 whole entry): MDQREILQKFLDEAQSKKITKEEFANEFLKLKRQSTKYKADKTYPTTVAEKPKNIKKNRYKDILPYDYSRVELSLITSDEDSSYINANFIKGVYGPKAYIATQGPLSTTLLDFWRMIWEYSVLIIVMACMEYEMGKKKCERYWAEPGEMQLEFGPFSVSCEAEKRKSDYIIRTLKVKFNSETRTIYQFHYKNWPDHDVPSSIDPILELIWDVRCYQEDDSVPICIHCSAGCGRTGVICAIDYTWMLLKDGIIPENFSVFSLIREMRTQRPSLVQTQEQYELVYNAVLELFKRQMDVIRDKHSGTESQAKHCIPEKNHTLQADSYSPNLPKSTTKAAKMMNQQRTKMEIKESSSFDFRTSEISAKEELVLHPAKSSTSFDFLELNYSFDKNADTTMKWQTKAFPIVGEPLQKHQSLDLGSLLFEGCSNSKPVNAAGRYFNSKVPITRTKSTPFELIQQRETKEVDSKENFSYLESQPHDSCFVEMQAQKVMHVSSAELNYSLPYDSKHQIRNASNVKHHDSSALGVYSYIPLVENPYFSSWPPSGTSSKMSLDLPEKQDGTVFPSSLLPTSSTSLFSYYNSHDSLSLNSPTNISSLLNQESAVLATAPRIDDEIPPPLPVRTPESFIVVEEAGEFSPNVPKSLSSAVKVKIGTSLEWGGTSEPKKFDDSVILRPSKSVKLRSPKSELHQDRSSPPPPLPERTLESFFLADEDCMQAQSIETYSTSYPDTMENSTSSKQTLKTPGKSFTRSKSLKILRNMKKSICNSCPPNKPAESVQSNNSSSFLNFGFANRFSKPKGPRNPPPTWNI
# [11] = target: T5, Tyrosine-protein phosphatase non-receptor type 22; assay: SAR LYP1 Fluorescent Assay using OMFP substrate for In Vitro dose response studies - Set 2. [Related pubchem assays (depositor defined):AID1779, AID1784, AID2140, AID449726, AID488869]; format: functional
# [12] = target: T5, Tyrosine-protein phosphatase non-receptor type 22; assay: SAR LYP1 Fluorescent Assay using pCAP substrate for In Vitro dose response studies - Set 2. [Related pubchem assays (depositor defined):AID1779, AID1784, AID2135, AID449727]; format: functional
# [13] = target: T1, Tyrosine-protein phosphatase non-receptor type 7; assay: HePTP (PTPN7) phosphatase inhibitor potency, SAR follow-up, biochemical, set 2 (AID 449736); format: functional
# [14] = target: T5, Tyrosine-protein phosphatase non-receptor type 22; assay: PubChem AID 2135
# [15] = target: T5, Tyrosine-protein phosphatase non-receptor type 22; assay: SAR LYP1 Fluorescent Assay using OMFP substrate for In Vitro dose response studies - Set 3. [Related pubchem assays (depositor defined):AID1779, AID1784, AID2140, AID2686]; format: functional
# [16] = target: T5, Tyrosine-protein phosphatase non-receptor type 22; assay: PubChem AID 2140
# [17] = target: Tyrosine-protein phosphatase non-receptor type 12 (Homo sapiens, UniProt Q05209); assay: SAR Selectivity Analysis of small molecule inhibitors of PEST using pCAP in a fluorescence assay. [Related pubchem assays (depositor defined):AID1779, AID1784, AID2135]; format: functional
# Chain of Tyrosine-protein phosphatase non-receptor type 12 (Q05209 whole entry): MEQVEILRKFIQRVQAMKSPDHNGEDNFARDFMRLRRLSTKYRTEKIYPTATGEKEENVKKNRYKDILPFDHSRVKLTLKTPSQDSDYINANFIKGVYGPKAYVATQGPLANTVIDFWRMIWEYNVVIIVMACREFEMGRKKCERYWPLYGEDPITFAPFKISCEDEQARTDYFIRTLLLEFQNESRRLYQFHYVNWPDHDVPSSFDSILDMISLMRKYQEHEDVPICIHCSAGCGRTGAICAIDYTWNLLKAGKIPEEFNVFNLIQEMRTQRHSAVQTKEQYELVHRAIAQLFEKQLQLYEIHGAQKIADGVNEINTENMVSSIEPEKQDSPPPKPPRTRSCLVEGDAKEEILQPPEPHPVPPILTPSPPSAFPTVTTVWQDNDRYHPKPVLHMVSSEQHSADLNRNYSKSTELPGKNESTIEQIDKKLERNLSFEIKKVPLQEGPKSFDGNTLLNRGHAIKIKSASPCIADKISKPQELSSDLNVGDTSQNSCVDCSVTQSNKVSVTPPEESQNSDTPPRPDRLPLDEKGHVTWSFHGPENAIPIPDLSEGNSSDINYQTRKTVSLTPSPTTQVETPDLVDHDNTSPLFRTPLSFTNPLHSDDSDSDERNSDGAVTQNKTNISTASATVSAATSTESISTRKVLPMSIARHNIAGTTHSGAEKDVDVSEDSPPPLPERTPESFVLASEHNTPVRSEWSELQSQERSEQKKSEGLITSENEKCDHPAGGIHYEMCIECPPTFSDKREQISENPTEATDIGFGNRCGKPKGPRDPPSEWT
# T4 sequence (P41145 whole entry): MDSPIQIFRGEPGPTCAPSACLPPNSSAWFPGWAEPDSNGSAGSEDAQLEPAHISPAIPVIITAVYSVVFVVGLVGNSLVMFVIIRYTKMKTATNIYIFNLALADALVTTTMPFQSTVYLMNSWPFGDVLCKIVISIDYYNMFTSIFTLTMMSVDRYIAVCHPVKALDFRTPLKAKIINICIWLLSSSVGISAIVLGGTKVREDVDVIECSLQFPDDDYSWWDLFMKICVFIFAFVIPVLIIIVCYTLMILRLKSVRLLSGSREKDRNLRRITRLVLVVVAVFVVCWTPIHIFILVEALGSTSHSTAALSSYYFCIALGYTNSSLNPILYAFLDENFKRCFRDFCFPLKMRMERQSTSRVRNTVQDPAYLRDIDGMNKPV
# T2 sequence (P51452 whole entry): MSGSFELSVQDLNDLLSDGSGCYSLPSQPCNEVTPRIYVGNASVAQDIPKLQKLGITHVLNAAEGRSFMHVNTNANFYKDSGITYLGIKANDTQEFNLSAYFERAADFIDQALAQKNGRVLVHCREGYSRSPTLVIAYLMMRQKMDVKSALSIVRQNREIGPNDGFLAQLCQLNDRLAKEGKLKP
# Chain of Protein Rev (P04618 whole entry): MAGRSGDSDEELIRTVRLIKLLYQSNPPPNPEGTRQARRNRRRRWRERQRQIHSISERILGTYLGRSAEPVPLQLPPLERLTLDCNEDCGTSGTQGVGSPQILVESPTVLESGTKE
# Chain of Female germline-specific tumor suppressor gld-1 (Q17339 whole entry): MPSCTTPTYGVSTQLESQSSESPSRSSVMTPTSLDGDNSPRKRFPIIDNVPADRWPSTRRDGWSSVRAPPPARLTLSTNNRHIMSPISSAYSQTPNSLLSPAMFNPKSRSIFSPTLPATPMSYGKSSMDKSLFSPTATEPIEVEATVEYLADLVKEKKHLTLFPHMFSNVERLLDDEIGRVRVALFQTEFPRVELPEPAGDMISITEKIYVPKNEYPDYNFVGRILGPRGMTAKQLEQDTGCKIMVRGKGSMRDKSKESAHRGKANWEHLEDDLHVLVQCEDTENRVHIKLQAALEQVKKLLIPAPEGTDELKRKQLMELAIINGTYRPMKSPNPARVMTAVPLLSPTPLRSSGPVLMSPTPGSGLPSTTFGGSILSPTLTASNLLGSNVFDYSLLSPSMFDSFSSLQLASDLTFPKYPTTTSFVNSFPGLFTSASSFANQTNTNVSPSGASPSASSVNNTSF
# Chain of Delta-type opioid receptor (P41143 whole entry): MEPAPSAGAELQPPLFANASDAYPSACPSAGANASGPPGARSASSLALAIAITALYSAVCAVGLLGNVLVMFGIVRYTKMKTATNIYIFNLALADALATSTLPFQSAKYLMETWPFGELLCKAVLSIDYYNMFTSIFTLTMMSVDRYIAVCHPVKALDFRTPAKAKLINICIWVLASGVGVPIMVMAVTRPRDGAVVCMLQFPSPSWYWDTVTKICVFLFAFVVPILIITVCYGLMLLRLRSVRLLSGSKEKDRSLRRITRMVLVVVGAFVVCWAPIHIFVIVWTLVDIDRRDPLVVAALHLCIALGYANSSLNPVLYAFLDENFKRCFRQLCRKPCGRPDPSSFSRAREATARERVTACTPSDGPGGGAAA
# Chain of Sphingosine 1-phosphate receptor 4 (O95977 whole entry): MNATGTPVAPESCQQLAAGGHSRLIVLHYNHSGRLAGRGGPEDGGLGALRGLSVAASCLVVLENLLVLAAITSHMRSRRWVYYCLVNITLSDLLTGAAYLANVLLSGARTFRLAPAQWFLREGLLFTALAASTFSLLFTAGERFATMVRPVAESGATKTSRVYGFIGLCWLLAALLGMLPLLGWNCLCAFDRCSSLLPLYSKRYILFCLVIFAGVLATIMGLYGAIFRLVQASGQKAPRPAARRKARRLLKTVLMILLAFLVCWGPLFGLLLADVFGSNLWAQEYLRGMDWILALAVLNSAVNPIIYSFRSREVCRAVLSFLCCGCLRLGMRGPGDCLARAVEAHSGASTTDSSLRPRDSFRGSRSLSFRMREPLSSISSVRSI
# Chain of Mu-type opioid receptor (P35372 whole entry): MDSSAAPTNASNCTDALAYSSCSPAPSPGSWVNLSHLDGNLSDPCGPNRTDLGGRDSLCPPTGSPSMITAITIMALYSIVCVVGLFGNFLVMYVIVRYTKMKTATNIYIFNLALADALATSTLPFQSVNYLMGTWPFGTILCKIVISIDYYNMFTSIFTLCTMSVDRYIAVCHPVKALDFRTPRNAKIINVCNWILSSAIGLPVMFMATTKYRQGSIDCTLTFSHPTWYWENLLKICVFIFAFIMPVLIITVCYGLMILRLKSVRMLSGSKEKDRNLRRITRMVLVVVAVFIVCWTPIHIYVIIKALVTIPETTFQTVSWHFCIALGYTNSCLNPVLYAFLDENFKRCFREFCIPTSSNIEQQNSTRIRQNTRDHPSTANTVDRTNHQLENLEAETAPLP
structure (smiles),measurement,setting,value
c1cc2c3c(cccc3c1)C(N1CCOCC1)=N2,IC50,Protein Rev,29.2 µM (not active)
same,IC50,[1],8.44 µM (active)
Fc1ccc(OCCn2cc(C(=S)N3CCCCC3)c3ccccc32)cc1,IC50,[2],47.2 µM (active)
same,IC50,[3],> 100 µM (inactive)
same,IC50,[4],> 99 µM (inactive)
same,IC50,[5],> 99 µM (inactive)
CCc1ccc(S(=O)(=O)NCc2ccc(C(=O)NCCN(Cc3ccc(Br)cc3)C(C)C)cc2)cc1,IC50,Mu-type opioid receptor,> 32 µM (inactive)
same,IC50,[6],0.523 µM (active)
same,IC50,[7],> 32 µM (inactive)
same,IC50,[8],0.82 µM (active)
Cc1ccc(OCCCOc2ccc(C)nc2[N+](=O)[O-])c([N+](=O)[O-])n1,EC50,[9],> 50 µM (inactive)
COC(=O)c1ccc(COc2ccc3cc(-c4ccc(F)cc4)c(=O)oc3c2)cc1,IC50,[10],> 100 µM (inactive)
same,IC50,[11],> 100 µM (inactive)
same,IC50,[12],> 100 µM (inactive)
same,IC50,[13],40 µM (active)
same,IC50,[14],> 100 µM (inactive)
same,IC50,[15],> 100 µM (inactive)
same,IC50,[16],> 100 µM (inactive)
same,IC50,[17],> 100 µM (inactive)
